Our source for the Activity values is ChEMBL document CHEMBL6121007, “Design, synthesis and evaluation of pyrimidine derivatives as sedative-hypnotic agents” (Eur J Med Chem, 2025).

Each structure is given as a SMILES string. Calls of active or inactive are those of the source. The calls are words filed in the database; no cut-off is given here.

Assay type in all cases: functional, organism-based
The test system of experiment [1] is Mus musculus. As to the kind of experiment: Sedative-hypnotic activity in mouse assessed as reduction in grip strength score at 50 mg/kg, ip administrated as single dose and measured after 30 mins by grip strength test.
For experiment [2], the system named is Mus musculus. Nature of the experiment: Sedative-hypnotic activity in mouse assessed as decrease in number of square crossing at 50 mg/kg, ip administrated as single dose and measured after 30 mins by open field test.
Experiment [3] deals with Mus musculus. Nature of the experiment: Sedative-hypnotic activity in mouse assessed as increase in latency time of first step out of center square at 5 mg/kg, ip administrated as single dose and measured after 30 mins by open field test.

For `CCn1cc(Nc2nccc(Nc3ccc4c(c3)c3ccccc3n4CC)n2)cn1`, the outcome in the experiment on Mus musculus [1] and with Mus musculus [2] was Active.
Consider `CCn1c2ccccc2c2cc(Nc3ccnc(Nc4ccc(C)cc4)n3)ccc21`, for which the result in the experiment on Mus musculus [1] and in the experiment with Mus musculus [2] was Active.
Turning to `Cc1nc2cc(Nc3ccnc(Nc4ccc5sc(C)nc5c4)n3)ccc2s1`, the result in the experiment with Mus musculus [1] and in the experiment on Mus musculus [2] was Active.
`CCn1c2ccccc2c2cc(Nc3nccc(Nc4ccc5sc(C)nc5c4)n3)ccc21`: the result with Mus musculus [1] and with Mus musculus [2] was Active.
Take `CCn1c2ccccc2c2cc(Nc3ccnc(Nc4ccc5c(cnn5C)c4)n3)ccc21`: the outcome in the experiment on Mus musculus [1] and in the experiment on Mus musculus [2] was Active.
With `CCn1c2ccccc2c2cc(Nc3ccnc(Nc4ccc5[nH]c(C)cc5c4F)n3)ccc21`, the outcome in the experiment on Mus musculus [1] and in the experiment on Mus musculus [2] was Active.
`Cc1nc2ccc(Nc3nccc(Nc4ccc5sc(C)nc5c4)n3)cc2[nH]1`: the result in the experiment on Mus musculus [1] and in the experiment with Mus musculus [2] was Active.
On to `CCn1c2ccccc2c2cc(Nc3ccnc(Nc4ccc(C(F)(F)F)cc4)n3)ccc21`, for which the outcome with Mus musculus [1] and with Mus musculus [2] was Active.
`Cc1nc2cc(Nc3ccnc(Nc4ccc5c(cnn5C)c4)n3)ccc2s1`: the outcome in the experiment on Mus musculus [1] and in the experiment on Mus musculus [2] was Active.
Regarding `CCn1c2ccccc2c2cc(Nc3ccnc(Nc4ccc(F)c(C)c4)n3)ccc21`, the outcome with Mus musculus [1] and with Mus musculus [2] was Active.
Take `Cc1nc2cc(Nc3ccnc(Nc4ccc(F)c(C)c4)n3)ccc2s1`: the result in the experiment with Mus musculus [1] and with Mus musculus [2] was Active.
`CCn1c2ccccc2c2cc(Nc3ccnc(Nc4cc(C)cc(F)c4)n3)ccc21`: the result with Mus musculus [1] and with Mus musculus [2] was Active.
Turning to `CCn1c2ccccc2c2cc(Nc3ccnc(Nc4ccc5nc(C)[nH]c5c4)n3)ccc21`, the result in the experiment with Mus musculus [1] and in the experiment on Mus musculus [2] was Active.
`CCn1c2ccccc2c2cc(Nc3ccnc(Nc4cnn(C)c4)n3)ccc21`: the result in the experiment with Mus musculus [1] and with Mus musculus [2] was Active.
In the case of `CCn1c2ccccc2c2cc(Nc3ccnc(Nc4cc(OC)cc(OC)c4)n3)ccc21`, the result with Mus musculus [1] and in the experiment on Mus musculus [2] was Active.
In the case of `CCn1c2ccccc2c2cc(Nc3ccnc(Nc4ccc5c(c4)c4ccccc4n5CC)n3)ccc21`, the result with Mus musculus [1] and in the experiment with Mus musculus [2] was Active.
In the case of `Cc1cc2c(F)c(Nc3nccc(Nc4ccc5sc(C)nc5c4)n3)ccc2[nH]1`, the result in the experiment with Mus musculus [1] and in the experiment with Mus musculus [2] was Active.
For `COC(=O)c1ccc(Nc2nccc(Nc3ccc4sc(C)nc4c3)n2)cc1OC`, the outcome in the experiment with Mus musculus [1] was Active. The outcome with Mus musculus [2] was inactive.
Consider `CCc1ccc(Nc2nccc(Nc3ccc4c(c3)c3ccccc3n4CC)n2)cc1`, for which the result in the experiment on Mus musculus [1] and in the experiment on Mus musculus [2] was Active.
Take `CCn1c2ccccc2c2cc(Nc3ccnc(Nc4ccc(CC(C)C)cc4)n3)ccc21`: the result with Mus musculus [1] and in the experiment with Mus musculus [2] was Active.
For the compound `COc1cc(Nc2nccc(Nc3ccc4sc(C)nc4c3)n2)ccc1O`, the outcome in the experiment on Mus musculus [1] and with Mus musculus [2] was Active.
Turning to `CCn1c2ccccc2c2cc(Nc3ccnc(Nc4ccc5sc(C)nc5c4)n3)ccc21`, the result in the experiment on Mus musculus [1] and with Mus musculus [2] was Active.
Turning to `CCn1c2ccccc2c2cc(Nc3ccnc(Nc4ccc(N5CCCCC5)cc4)n3)ccc21`, the outcome with Mus musculus [1] and with Mus musculus [2] was Active.
Turning to `CCn1c2ccccc2c2cc(Nc3ccnc(Nc4ccc(C(C)C)cc4)n3)ccc21`, the result in the experiment on Mus musculus [1] and with Mus musculus [2] was Active.
On to `CN1C(=O)CN=C(c2ccccc2)c2cc(Cl)ccc21`, for which the result in the experiment on Mus musculus [3] was inactive.
